Laboratory results reported in patent US20240336596A1, “PARP7 INHIBITOR AND USE THEREOF” (NOVOSTAR PHARMACEUTICALS, LTD., priority 2022, published 2024).
pIC50: −log10 of the molar value.

Assays:
[1] = target: T1, recombinant human PARP7 protein (Homo sapiens, UniProt Q7Z3E1); assay: Inhibition of PARP7 biological enzyme activity (histone-coated plate, Biotin-NAD+, chemiluminescence); format: biochemical; details: recombinant human PARP7, Biotin-NAD+ substrate
T1 construct: purchased Abcam ab271651
T1 sequence (Q7Z3E1 1-657): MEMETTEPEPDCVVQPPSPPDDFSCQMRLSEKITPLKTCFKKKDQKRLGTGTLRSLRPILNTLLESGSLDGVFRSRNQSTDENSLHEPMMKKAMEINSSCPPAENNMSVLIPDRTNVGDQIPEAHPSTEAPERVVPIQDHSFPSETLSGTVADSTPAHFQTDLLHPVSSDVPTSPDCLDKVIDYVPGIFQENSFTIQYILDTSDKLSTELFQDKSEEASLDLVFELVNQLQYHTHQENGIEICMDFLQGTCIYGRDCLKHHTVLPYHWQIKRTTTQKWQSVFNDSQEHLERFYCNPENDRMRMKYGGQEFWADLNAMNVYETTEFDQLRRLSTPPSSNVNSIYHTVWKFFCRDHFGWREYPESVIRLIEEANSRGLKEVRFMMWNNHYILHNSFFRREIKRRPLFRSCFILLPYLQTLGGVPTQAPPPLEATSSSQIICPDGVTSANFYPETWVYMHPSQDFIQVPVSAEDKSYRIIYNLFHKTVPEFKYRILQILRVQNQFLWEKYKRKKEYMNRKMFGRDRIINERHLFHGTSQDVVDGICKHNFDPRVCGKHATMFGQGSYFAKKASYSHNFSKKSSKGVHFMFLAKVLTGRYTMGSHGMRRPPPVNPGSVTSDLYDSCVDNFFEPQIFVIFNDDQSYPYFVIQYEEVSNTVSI
Method in brief: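 Recombinant human PARP7 was preincubated with compound (1000–0.05 nM final) on histone-coated plates for 15 min at 25 °C, then reacted with Biotin-NAD+ for 60 min at 25 °C. Ribosylation was detected by streptavidin-HRP chemiluminescence. IC50 was fitted from % inhibition relative to controls.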

NCI-H1373 cancer cells = assay: NCI-H1373 cancer cell growth inhibition (CellTiter-Glo, 144 hours); format: cell-based; details: Homo sapiens, 144 hours culture
Method in brief: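 Cells seeded at 3500/well and dosed after 24 h with a 10-point series from 10 μM down to 0.0005 μM (0.2% DMSO). After 144 h, viability was read by CellTiter-Glo luminescence. Growth inhibition was calculated relative to day-0 and solvent-control RLU, and IC50 was obtained from dose-response curve fits.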

[2] = Pharmacokinetic study in mice (IV and oral gavage); format: in vivo, CD-1 mice; details: for AUClast (plasma exposure) relative to RBN-2397 / drug plasma half-life (T1/2) relative to RBN-2397 / drug clearance (CL(iv)) relative to RBN-2397 / maximum blood concentration (Cmax) relative to RBN-2397: mice; for drug plasma half-life (T1/2) relative to RBN-2397 / drug clearance (CL(iv)) relative to RBN-2397: intravenous administration; for drug clearance (CL(iv)) relative to RBN-2397: fraction of RBN-2397 value; for clearance / bioavailability / AUC(0-t) / half-life / Cmax: mouse, plasma, male CD-1 mice; for clearance: read-out: CL(iv) (converted); for bioavailability: oral bioavailability, PO 10 mg/kg vs IV 3 mg/kg
Description: Formulation of intravenous and oral gavage administration solutions: The compounds to be tested were dissolved in solutions formulated with 5% DMSO, 10% solutol HS15, and 85% saline.
Dosage (measured as the amount of compound in the administration solution (mg)/mouse body weight (kg)): 3 mg/kg intravenously (IV), 10 mg/kg oral gavage (PO).
A total of 18 CD-1 mice (Shanghai Jihui Experimental Animal Feeding Co., LTD.), male, weight 28-31 g, were fasted for 12 hours and randomly divided into 2 groups (Group A and Group B) with 9 mice in each group. Animals in Group A were given the compound solution by oral gavage at the dose of 10 mg/kg. Animals in Group B were given the compound solution by tail vein injection at the dose of 3 mg/kg, and blank blood was taken before administration. About 110 μL of venous blood was taken from animals in Group A at 0.25 h, 0.5 h, 1 h, 2 h, 4 h, 8 h, and 24 h after administration. About 110 μL of venous blood was taken from animals in Group B at 0.083 h, 0.25 h, 0.5 h, 1 h, 2 h, 4 h, 8 h, and 24 h after administration, and all were placed in test tubes with heparin, centrifuged, and plasma was collected and stored at −70° C. for testing.
AUClast represents the area under the drug time curve from the beginning of the administration time to the last point, that is, the area surrounded by the blood drug concentration curve to the time axis. CL(iv) represents the drug clearance of intravenous administration; T1/2 represents the plasma half-life of the drug, which refers to the time required for half of the drug to be eliminated from the body. Cmax represents the maximum concentration of the drug in the plasma after administration. F % indicates oral bioavailability of the drug.

Row | pIC50 [1] | pIC50 (NCI-H1373 cancer cells) | AUClast (plasma exposure) relative to RBN-2397 ([2]; 3 mg/kg intravenous injection) | drug plasma half-life (T1/2) relative to RBN-2397 [2] [times] | drug clearance (CL(iv)) relative to RBN-2397 [2] | clearance ([2]; IV 3 mg/kg) [mL/min/kg] | bioavailability [2] [%] | AUC(0-t) ([2]; IV 3 mg/kg) [ng·h/mL] | half-life ([2]; IV 3 mg/kg) [h] | AUC(0-t) ([2]; PO 10 mg/kg) [ng·h/mL] | Cmax ([2]; PO 10 mg/kg) [ng/mL] | AUClast (plasma exposure) relative to RBN-2397 ([2]; oral gavage 10 mg/kg) | maximum blood concentration (Cmax) relative to RBN-2397 ([2]; oral gavage 10 mg/kg) [times] | Compound
1 | > 8.00 | > 7.00 | about 4.4 times | 8 | about ⅕ | 15.5 | 61.3 | 3210 | 1.62 | 6550 | 5320 | about 11.3 times | 7.8 | C[C@@H](CONC(=O)CC1CCN(c2ncc(C(F)(F)F)cn2)CC1)Nc1cn[nH]c(=O)c1C(F)(F)F [Example 17, (S)—N-(2-((6-oxo-5-(trifluoromethyl)-1,6-dihydropyridazin-4-yl)amino)propoxy)-2-(1-(5-(trifluoromethyl)pyrimidin-2-yl)piperidin-4-yl)acetamide]
2 | – | – | – | – | – | 68.3 | 23.9 | 732 | 0.2 | 582 | 682 | – | – | C[C@@H](COCCC(=O)N1CCN(c2ncc(C(F)(F)F)cn2)CC1)Nc1cn[nH]c(=O)c1C(F)(F)F [RBN-2397, reference compound]
3 | – | > 7.00 | about 3.8 times | 27.8 | about ⅕ | 17.8 | 75.9 | 2780 | 5.55 | 7060 | 7230 | ~12.1 times | 10.6 | C[C@@H](CONC(=O)CC1=CCN(c2ncc(C(F)(F)F)cn2)CC1)Nc1cn[nH]c(=O)c1C(F)(F)F [Example 25, (S)—N-(2-((6-oxo-5-(trifluoromethyl)-1,6-dihydropyridazin-4-yl)amino)propoxy)-2-(1-(5-(trifluoromethyl)pyrimidin-2-yl)-1,2,3,6-tetrahydropyridin-4-yl)acetamide]
4 | > 8.00 | 5.00 to 6.00 | – | – | – | – | – | – | – | – | – | – | – | CC(/C=N/OCC(=O)N1CCN(c2ncc(C(F)(F)F)cn2)CC1)c1cccc2c(=O)[nH]ncc12 (stereo not drawn) [Example 18, (E)-2-(1-oxo-1,2-dihydrophthalazin-5-yl)propanal O-(2-oxo-2-(4-(5-(trifluoromethyl)pyrimidin-2-yl)piperazin-1-yl)ethyl) oxime]
